The record followed here is ChEMBL document CHEMBL3856285, “Recent progress in the identification of adenosine monophosphate-activated protein kinase (AMPK) activators” (Bioorg Med Chem Lett, 2016).

Assay [1] concerns the target T1, AMP-activated protein kinase (AMPK) alpha-1/beta-1/gamma-1 (Homo sapiens) (UniProt P54619+Q9Y478+Q13131). Description: Activation of full length human recombinant AMPK alpha1/beta1/gamma1 preincubated for 10 mins followed by FL-Peptide 7 addition measured after 2 hrs by fluorescence assay. Format: protein-complex assay.
Assay [2] has as its target T2, AMPK alpha2/beta2/gamma1 (Homo sapiens) (UniProt P54646+O43741+P54619). The assay is described as follows: Activation of full length human His6-tagged AMPK alpha2/beta2/gamma1 expressed in Escherichia coli BL21-CodonPlus (DE3)-RIPL preincubated for 10 mins followed by FL-Peptide 7 substrate addition measured after 2 hrs by fluorescence assay.
In assay [3] the target is T1, AMP-activated protein kinase (AMPK) alpha-1/beta-1/gamma-1 (Homo sapiens). The assay is described as follows: Activation of full length human recombinant AMPK alpha1/beta1/gamma1 preincubated for 10 mins followed by FL-Peptide 7 addition measured after 2 hrs by fluorescence assay relative to AMP. Format: protein-complex assay.
The target of assay [4] is T2, AMPK alpha2/beta2/gamma1 (Homo sapiens). The assay is described as follows: Activation of full length human His6-tagged AMPK alpha2/beta2/gamma1 expressed in Escherichia coli BL21-CodonPlus (DE3)-RIPL preincubated for 10 mins followed by FL-Peptide 7 substrate addition measured after 2 hrs by fluorescence assay relative to AMP.
Assay [5] has as its target T3, AMP-activated protein kinase (AMPK) alpha-1/beta-1/gamma-1 (Homo sapiens, UniProt P54619+Q13131+Q9Y478). The assay is described as follows: Activation of full length human His/GST-tagged AMPK alpha1/beta1/gamma1 expressed in baculovirus expression system after 1 hr by Z'Lyte assay.
The target in assay [6] is T4, 5'-AMP-activated protein kinase subunit beta-1 (Homo sapiens, UniProt Q9Y478).
T4 sequence (Q9Y478 whole entry): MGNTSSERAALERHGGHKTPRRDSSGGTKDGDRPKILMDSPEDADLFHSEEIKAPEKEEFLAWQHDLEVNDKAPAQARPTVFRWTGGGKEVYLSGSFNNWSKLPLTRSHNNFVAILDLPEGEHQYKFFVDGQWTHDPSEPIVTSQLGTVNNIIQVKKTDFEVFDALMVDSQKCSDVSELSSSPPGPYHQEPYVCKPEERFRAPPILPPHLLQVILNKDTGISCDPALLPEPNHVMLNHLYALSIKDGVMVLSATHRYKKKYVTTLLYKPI
Description: Activation of human recombinant AMPK beta1 expressed in African green monkey COS7 cells or baculovirus infected insect cells assessed as increase in biotinylated […] (1 to 120 residues) peptide phosphorylation at Ser-79 residue measured after 60 mins by Alphascreen assay. Details: species or system COS-7. (In general: In Alpha technology, singlet oxygen from a donor bead excites a nearby acceptor bead.)

Assay [7] deals with T5, 5'-AMP-activated protein kinase subunit beta-2 (Homo sapiens, UniProt O43741).
T5 sequence (O43741 whole entry): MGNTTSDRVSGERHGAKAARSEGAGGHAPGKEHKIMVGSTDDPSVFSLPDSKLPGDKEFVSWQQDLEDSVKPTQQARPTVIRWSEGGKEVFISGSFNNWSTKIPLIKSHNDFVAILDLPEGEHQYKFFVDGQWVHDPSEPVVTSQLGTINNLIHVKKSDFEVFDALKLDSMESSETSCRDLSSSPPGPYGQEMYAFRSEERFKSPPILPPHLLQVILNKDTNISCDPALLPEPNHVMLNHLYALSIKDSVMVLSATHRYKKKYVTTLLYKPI
The assay is described as follows: Activation of human recombinant AMPK beta2 expressed in African green monkey COS7 cells or baculovirus infected insect cells assessed as increase in biotinylated […] (1 to 120 residues) peptide phosphorylation at Ser-79 residue measured after 60 mins by Alphascreen assay. Details: species or system COS-7.

For assay [8], the target named is AMPK alpha1/beta1/gamma2 (Homo sapiens) (UniProt Q9UGJ0+Q9Y478+Q13131). Description: Activation of human recombinant AMPK alpha1/beta1/gamma2 expressed in Escherichia coli assessed as residual activity at 30 uM using AMARAA peptide relative to control.
For assay [9], the target named is T6, 5'-AMP-activated protein kinase catalytic subunit alpha-2/beta-1/gamma-2 (Homo sapiens, UniProt P54646+Q9UGJ0+Q9Y478). Description: Activation of recombinant human His-tagged AMPK alpha2 (2 to 552 residues)/beta1 (2 to 270 residues)/gamma2 (2 to 569 residues) expressed in baculovirus infected sf21 cells preincubated for 30 mins followed by biotinylated ACC-CREBp peptide substrate addition measured after 45 mins by HTRF assay. (In general: TR-FRET usually uses a lanthanide donor and a delayed reading to cut background.)
Target sequence in this assay (P54646 whole entry, one chain of several, the tested form may be a part): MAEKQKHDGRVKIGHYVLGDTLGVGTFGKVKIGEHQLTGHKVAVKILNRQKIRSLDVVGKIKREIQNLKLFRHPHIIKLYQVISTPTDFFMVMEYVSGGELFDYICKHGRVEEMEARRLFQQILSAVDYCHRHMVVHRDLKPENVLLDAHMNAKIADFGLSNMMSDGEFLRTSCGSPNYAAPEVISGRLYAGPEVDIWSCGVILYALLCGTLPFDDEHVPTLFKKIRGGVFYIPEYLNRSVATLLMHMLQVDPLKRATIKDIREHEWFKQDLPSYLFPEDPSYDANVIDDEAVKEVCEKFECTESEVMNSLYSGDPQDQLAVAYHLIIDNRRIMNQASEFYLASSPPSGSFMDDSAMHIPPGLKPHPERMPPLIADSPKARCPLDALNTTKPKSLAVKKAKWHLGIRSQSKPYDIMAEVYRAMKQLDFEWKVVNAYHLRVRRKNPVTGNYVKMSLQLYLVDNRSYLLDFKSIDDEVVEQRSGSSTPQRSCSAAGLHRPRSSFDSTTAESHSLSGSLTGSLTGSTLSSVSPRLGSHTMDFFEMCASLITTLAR
Target sequence in this assay (Q9UGJ0 whole entry, one chain of several, the tested form may be a part): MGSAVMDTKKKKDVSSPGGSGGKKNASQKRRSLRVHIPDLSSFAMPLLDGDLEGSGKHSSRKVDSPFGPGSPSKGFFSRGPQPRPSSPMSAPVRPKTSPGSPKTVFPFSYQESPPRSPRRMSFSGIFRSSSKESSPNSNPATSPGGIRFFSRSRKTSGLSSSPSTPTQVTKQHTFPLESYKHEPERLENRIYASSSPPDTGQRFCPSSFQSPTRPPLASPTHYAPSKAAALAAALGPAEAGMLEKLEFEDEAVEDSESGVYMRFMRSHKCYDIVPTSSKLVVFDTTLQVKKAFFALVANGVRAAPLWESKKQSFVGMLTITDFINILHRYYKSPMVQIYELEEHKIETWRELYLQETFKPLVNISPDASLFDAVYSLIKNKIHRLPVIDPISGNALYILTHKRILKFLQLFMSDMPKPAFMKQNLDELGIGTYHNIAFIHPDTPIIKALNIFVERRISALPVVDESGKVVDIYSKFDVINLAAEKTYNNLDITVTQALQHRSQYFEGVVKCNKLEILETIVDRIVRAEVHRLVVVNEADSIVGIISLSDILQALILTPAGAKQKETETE

Assay [10] concerns the target T7, 5'-AMP-activated protein kinase subunit beta-1 (Homo sapiens) (UniProt Q9Y478).
T7 sequence (whole entry): T4 sequence (Q9Y478 whole entry)
The assay is described as follows: Activation of AMPK beta1 in human HepG2 cells assessed as increase in phospho-ACC1 level at 1 uM after 2 hrs by ELISA relative to control. Format: cell-based. On the technique in general: An ELISA detects its analyte on a solid surface through an enzyme-linked reagent.

The target in assay [11] is T8, 5'-AMP-activated protein kinase subunit beta-2 (Mus musculus) (UniProt Q6PAM0).
T8 sequence (whole entry): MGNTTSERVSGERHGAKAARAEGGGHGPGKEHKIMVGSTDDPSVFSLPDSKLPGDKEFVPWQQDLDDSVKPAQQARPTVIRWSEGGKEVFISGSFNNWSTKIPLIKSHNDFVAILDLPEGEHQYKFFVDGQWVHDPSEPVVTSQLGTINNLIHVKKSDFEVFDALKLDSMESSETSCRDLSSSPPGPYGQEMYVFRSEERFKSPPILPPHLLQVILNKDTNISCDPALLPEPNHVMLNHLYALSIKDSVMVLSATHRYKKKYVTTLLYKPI
The assay is described as follows: Activation of AMPK beta2 in mouse C2C12 myotubes assessed as increase in phospho-ACC1 level at 1 uM after 2 hrs by ELISA relative to control.

The target in assay [12] is T6, 5'-AMP-activated protein kinase catalytic subunit alpha-2/beta-1/gamma-2. Description: Activation of recombinant human His-tagged AMPK alpha2 (2 to 552 residues)/beta1 (2 to 270 residues)/gamma2 (2 to 569 residues) expressed in baculovirus infected sf21 cells preincubated for 30 mins followed by biotinylated ACC-CREBp peptide substrate addition measured after 45 mins by HTRF assay relative to AMP.
Target sequence in this assay (P54646 whole entry, one chain of several, the tested form may be a part): as the sequence (P54646 whole entry, one chain of several, the tested form may be a part) above
Target sequence in this assay (Q9UGJ0 whole entry partner, one chain of several, the tested form may be a part): as the sequence (Q9UGJ0 whole entry, one chain of several, the tested form may be a part) above

Assay [13] concerns the target T3, AMP-activated protein kinase (AMPK) alpha-1/beta-1/gamma-1. The assay is described as follows: Activation of full length human recombinant AMPK alpha1/beta1/gamma1 expressed in baculovirus infected sf21 cells using 5'-FAM-SAMS peptide substrate after 45 mins by fluorescence assay.
Assay [14] deals with T1, AMP-activated protein kinase (AMPK) alpha-1/beta-1/gamma-1 (Homo sapiens). Description: Activation of full length human recombinant AMPK alpha1/beta1/gamma1 expressed in baculovirus infected sf21 cells using 5'-FAM-SAMS peptide substrate after 45 mins by fluorescence assay relative to AMP.
For assay [15] the target is unchanged. Description: (§1) Activation of human recombinant AMPK GST-tagged alpha1/Myc-tagged beta1/HA-tagged gamma1 expressed in African green monkey COS7 cells assessed as increase in SAMS peptide phosphorylation measured after 10 mins in presence of [gamma33P]ATP by scintillation counting method relative to control. Format: cell-based. The following applies: COS-7.
The target in assay [16] is T3, AMP-activated protein kinase (AMPK) alpha-1/beta-1/gamma-1. Described as §1. Format: cell-based, COS-7.
Assay [17] deals with AMP-activated protein kinase, AMPK (Homo sapiens) (UniProt P54646+O43741+P54619+Q9UGJ0+Q9Y478+Q13131+Q9UGI9). The assay is described as follows: Activation of human recombinant AMPK assessed as increase in ADP accumulation using SAMS peptide after 30 mins by fluorescence assay.
Assay [18] addresses T3, AMP-activated protein kinase (AMPK) alpha-1/beta-1/gamma-1. The assay is described as follows: Activation of full length human phosphorylated His-tagged AMPK alpha1/beta1/gamma1 expressed in Escherichia coli BL21-CodonPlus (DE3)-RIPL using SAMS peptide substrate preincubated for 15 mins followed by PP2A addition for 90 mins followed by substrate addition measured after 60 mins in presence of [33P]ATP by scintillation counting method.

Assay [19] addresses T1, AMP-activated protein kinase (AMPK) alpha-1/beta-1/gamma-1 (Homo sapiens). The assay is described as follows: Activation of full length human phosphorylated His-tagged AMPK alpha1/beta1/gamma1 expressed in Escherichia coli BL21-CodonPlus (DE3)-RIPL using SAMS peptide substrate preincubated for 15 mins followed by PP2A addition for 90 mins followed by substrate addition measured after 60 mins in presence of [33P]ATP by scintillation counting method relative to AMP.

Assay [20] concerns the target T3, AMP-activated protein kinase (AMPK) alpha-1/beta-1/gamma-1. Description: Activation of human recombinant AMPK alpha1/beta1/gamma1 expressed in Escherichia coli BL21-CodonPlus (DE3)-RIPL using SAMS peptide after 10 mins in presence of [gamma33P]ATP by scintillation counting.
The target of assay [21] is AMPK alpha2/beta1/gamma1 (Homo sapiens) (UniProt P54646+P54619+Q9Y478). The assay is described as follows: Activation of full length human recombinant AMPK alpha2/beta1/gamma1 expressed in baculovirus infected sf21 cells using 5'-FAM-SAMS peptide substrate after 45 mins by fluorescence assay relative to AMP.

Molecules are shown by their SMILES.

T2 sequence (P54619 whole entry, looked up, one chain of several): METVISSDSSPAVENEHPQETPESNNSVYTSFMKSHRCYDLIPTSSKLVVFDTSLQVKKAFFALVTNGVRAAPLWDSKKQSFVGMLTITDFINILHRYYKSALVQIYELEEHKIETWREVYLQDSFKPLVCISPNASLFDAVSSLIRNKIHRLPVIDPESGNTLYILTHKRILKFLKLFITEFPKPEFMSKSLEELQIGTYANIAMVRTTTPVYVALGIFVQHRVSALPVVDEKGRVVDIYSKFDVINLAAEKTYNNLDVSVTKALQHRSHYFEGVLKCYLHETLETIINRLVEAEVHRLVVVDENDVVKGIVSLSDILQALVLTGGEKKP
T2 sequence (P54646 whole entry, looked up, one chain of several): as the sequence (P54646 whole entry, one chain of several, the tested form may be a part) above
T1 sequence (P54619 whole entry, one chain of several): as the sequence (P54619 whole entry, looked up, one chain of several) above
T1 sequence (Q13131 whole entry partner, one chain of several): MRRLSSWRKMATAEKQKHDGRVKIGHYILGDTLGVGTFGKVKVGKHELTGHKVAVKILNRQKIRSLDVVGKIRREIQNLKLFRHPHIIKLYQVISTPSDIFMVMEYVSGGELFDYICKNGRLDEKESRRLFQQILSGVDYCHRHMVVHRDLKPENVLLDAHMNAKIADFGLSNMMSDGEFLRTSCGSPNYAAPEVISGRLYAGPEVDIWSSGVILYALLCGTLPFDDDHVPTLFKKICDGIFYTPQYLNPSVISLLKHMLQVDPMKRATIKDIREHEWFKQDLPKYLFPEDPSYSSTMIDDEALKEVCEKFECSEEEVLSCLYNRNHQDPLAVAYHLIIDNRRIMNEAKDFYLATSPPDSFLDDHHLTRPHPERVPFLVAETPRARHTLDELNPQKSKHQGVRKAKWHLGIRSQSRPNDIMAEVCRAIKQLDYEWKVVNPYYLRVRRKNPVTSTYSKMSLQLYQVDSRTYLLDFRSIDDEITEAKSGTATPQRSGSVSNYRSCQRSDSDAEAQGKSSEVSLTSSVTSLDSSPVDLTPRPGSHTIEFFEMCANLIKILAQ
T3 sequence (P54619 whole entry, one chain of several): as the sequence (P54619 whole entry, looked up, one chain of several) above
T3 sequence (Q13131 whole entry, one chain of several): as the sequence (Q13131 whole entry partner, one chain of several) above
AMPK alpha1/beta1/gamma2 (Homo sapiens), sequence (Q13131 whole entry partner, one chain of several, the tested form may be a part): as the sequence (Q13131 whole entry partner, one chain of several) above
AMPK alpha1/beta1/gamma2 (Homo sapiens), sequence (Q9UGJ0 whole entry, one chain of several, the tested form may be a part): as the sequence (Q9UGJ0 whole entry, one chain of several, the tested form may be a part) above
AMPK alpha2/beta1/gamma1 (Homo sapiens), sequence (P54619 whole entry partner, one chain of several): as the sequence (P54619 whole entry, looked up, one chain of several) above
AMPK alpha2/beta1/gamma1 (Homo sapiens), sequence (P54646 whole entry, one chain of several): as the sequence (P54646 whole entry, one chain of several, the tested form may be a part) above

For `CC(C)(C(=O)O)[C@H]1CC[C@H](Oc2nc3nc(-c4ccc(C5(CO)CC5)cc4)c(Cl)cc3[nH]2)CC1`, the results for the EC150 in assay [1] and in assay [2] were 5.6 nM and 5 nM, respectively. Besides, the %max in [3] amounted to 257%; in assay [4] it was 237%.
Consider `Cc1cc(-c2c(O)c3cc(-c4ccc(N(C)C)cc4)c(Cl)cc3[nH]c2=O)on1`, for which the EC50 in assay [5] was 0.0398 µM.
Regarding `O=C(O)c1c[nH]c2ccc(-c3ccc(-c4c(O)cccc4O)cc3)cc12`, the EC50 in assay [6] is less than 0.5 µM; in assay [7], less than 5 µM.
Take `Cc1ccc(-c2c(O)c3c(-c4ccc5ccccc5c4O)c(Cl)sc3[nH]c2=O)cc1`: the Activity in [8] was greater than 90%.
Consider `COc1cc(C(O)=C2C(=O)Nc3cc(Cl)c(-c4ccc5c(ccn5C)c4)cc32)on1`, for which, in assay [9], the EC50 worked out at 0.0007 µM. Further, the Activity in assay [10] came out at 132%; in assay [11], 114%. In addition, the Emax in assay [12] turned out to be 256%.
Take `CC(C)(O)c1ccc(-c2cc3nc(O[C@H]4CO[C@H](CO)[C@@H](O)C4)[nH]c3cc2Cl)cc1`: in [13], the EC50 worked out at 0.004 µM. The %max in assay [14] worked out at 379%.
On to `C(=N\c1cnc2ccccc2c1)/c1ccc2ccccc2n1`, for which the fold change (FC) in [15] came out at 2.7. Also, the EC50 in assay [16] is 1.8 µM.
On to `CC1(C)Cc2cc(C(=O)O)ccc2NC1c1cccc(N2C(=O)OCC2(C)C)c1` (stereo not given), for which the concentration for an effect of 30% (EC30) in assay [17] was 1.15 µM.
On to `O=C(O)c1n[nH]c2cc(Cl)c(-c3ccc(C4(O)CCC4)cc3)cc12`, for which, in assay [18], the EC50 came out at 0.0083 µM. Moreover, the %max in assay [19] was determined as 80%.
Take `Cc1ccc(Oc2nc3nc(-c4ccc(-c5ccccc5O)cc4)c(Cl)cc3[nH]2)cc1C(=O)O`: the EC150 in [1] came to 0.42 nM; in assay [2], 4.3 nM. Moreover, the %max came to 355% in [3] and 292% in assay [4].
Take `Cc1cc(-c2ccc(/C=C3\S/C(=N\c4ccc(Cl)c(C(=O)O)c4)NC3=O)o2)c([N+](=O)[O-])cc1C`: in assay [20], the EC50 was 0.3 µM.
Regarding `N#Cc1ccc(-c2ccc(-c3nc4nc(O[C@@H]5CO[C@H]6[C@@H]5OC[C@H]6O)[nH]c4cc3Cl)cc2)c(F)c1`, in [21], the %max amounted to 304%.

By EC50 is commonly meant the concentration at which the effect is half-maximal. The term Emax denotes the greatest response seen or fitted, relative to the assay's reference. One may read the EC30 as the concentration needed for an effect of 30%.
